Experimental data reported in article PMC2854649 (Biochemical and biophysical research communications, 2009).
Like-named read-outs stand apart in the source and are kept apart here.

Tests used:
C57Bl/6J mice = assay type: in vivo, mouse; settings: 2 mg in 200 μL saline via tail-vein injection, N=6
CD1 mice = assay type: in vivo, mouse; settings: for Percent Surviving: CD1 mice, survival recorded for 24 hrs
CD3+ human PBMCs = assay: Radiation-induced apoptosis; assay type: cell-based; settings: CD3+ human PBMCs exposed to 20 Gy radiation, Figure 1
male C57Bl/6 mice = assay: Post-exposure treatment after lethal total body irradiation; assay type: in vivo, mouse; settings: 1 mg dose, data not shown
[1] = test system: primary human lymphocytes (PBMCs); assay: Cellular uptake and subcellular distribution of FITC-labeled peptides; assay type: cell-based; settings: 5 μM fluorescein-labeled peptide, 1 h, RPMI with 10% FBS or serum-free PBS

(d) ^1-Ac-RKKRR-Orn-RRR-β-A-(l) ^1-SNRELVVDFLSYKLSQKGYS-COOH [TAT-BH4]
Time to death following injection (C57Bl/6J mice): 3 to 5 min
Appearance of mice the following day (CD1 mice; 2 mg i.p.): appeared normal
Percent Surviving (CD1 mice; 2 mg i.p.): 100%
Percent Surviving (CD1 mice; 5 mg i.p.): 75%
Appearance of surviving mice the following day (CD1 mice; 5 mg or 20 mg i.p., necropsy: distended and edematous bowel, small necrotic foci): piloerection and distended abdomens
Percent Surviving (CD1 mice; 20 mg i.p.): 25%

(d) ^1-Ac-RKKRR-Orn-RRR-β-A-(l) ^1-SNRELVVDFLSDKLSQKGDS-COOH [TAT-BH4i]
Effect on radiation-induced apoptosis, in words (CD3+ human PBMCs): Neither TAT-BH4i nor NLS-BH4i had any appreciable effect

(d) ^1-Ac-RKKRR-Orn-RRR-COOH [TAT, reference compound]
Percent Surviving (CD1 mice; 2 mg i.p.): 100%
Percent Surviving (CD1 mice; 5 mg i.p.): 0%

Ac-KKKRKV-β-A-(l) ^1-SNRELVVDFLSDKLSQKGDS-COOH [NLS-BH4i]
Effect on radiation-induced apoptosis, in words (CD3+ human PBMCs): Neither TAT-BH4i nor NLS-BH4i had any appreciable effect

Ac-KKKRKV-β-A-(l) ^1-SNRELVVDFLSYKLSQKGYS-COOH [NLS-BH4]
Radiation-induced lymphocyte apoptosis in vivo (pilot study) (male C57Bl/6 mice): significantly attenuated radiation-induced lymphocyte apoptosis
Percent Surviving (CD1 mice; 2 mg i.p.): 100%
Percent Surviving (CD1 mice; 10 mg i.p.): 100%
Percent Surviving (CD1 mice; 30 mg i.p.): 100%
Tolerability of i.p. injections (CD1 mice; 2, 5, or 0 mg i.p., N = 3 mice per group): without any apparent ill effects
Uptake by PBMCs (fluorescence intensity, flow cytometry) [1]: less dependent on the presence of serum
